Measured values from patent US9409952B2, “Peptide-compound cyclization method” (Chugai Seiyaku Kabushiki Kaisha, priority 2011, dated 2016).
Where two headings read alike, the source gives them in different places. Starred links: 1 amine or outer side, 2 acyl side, 3 side chain; linkers in the order of their positions; H or OH if unused. Positions of bridges follow the written chain, without caps; N, C: chain ends. Non-standard residues stand in square brackets, D forms with d. Residues, ends and D or L forms follow the SMILES beside them. *: point of attachment. NMeF = CN[C@@H](Cc1ccccc1)C(=O)O; NMeGABA = CN(CCCC(=O)[*:2])[*:1]; NMeI = CC[C@H](C)[C@H](NC)C(=O)O; NMeβAla = CN(CCC(=O)[*:2])[*:1]; NMeL = CN[C@@H](CC(C)C)C(=O)O; NMeV = CN[C@H](C(=O)O)C(C)C; NMeA = CN[C@@H](C)C(=O)O; Piperidide = C1CCN(*)CC1; dNMeA = CN[C@H](C)C(=O)O; Sar = CNCC(=O)O

Tests used:
[1] = Metabolic stability in human hepatic microsome; assay type: in vitro ADME; settings: microsomes
[2] = PAMPA (parallel artificial membrane permeability assay); assay type: in vitro ADME; settings: for Papp at 18 hours, 50 µM: PAMPA
Outline: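 Artificial membrane was 10% (w/v) egg lecithin plus 0.5% (w/v) cholesterol in dodecane on a PVDF filter. A 10 mM DMSO stock was added at 0.5% (v/v) to donor buffer (50 mM MOPSO, pH 6.5, 5.0% glycocholic acid). After 18 h at 37 °C, LC/MS or LC/UV gave donor and acceptor levels for Pe.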

[3] = pH 7.4, human hepatic microsome, NADPH(+), read-out: CL NADPH(+)
[4] = membrane permeation rate (Pe), 50 mM MOPSO buffer pH 6.5 with 5.0% glycocholic acid, 37° C., 18 hours, read-out: iPAMPA Pe

SMILES | microsomal CLint at 1 uM ([1]; human, pH 7.4, CL NADPH(+)) | Papp at 18 hours, 50 µM ([2]; pH 6.5) | microsomal CLint at 1 uM [1, 3] | Papp at 18 hours, 50 µM [2, 4] | iPAMPA Pe ([2]; membrane permeation rate (Pe), 50 mM MOPSO buffer pH 6.5 with 5.0% glycocholic acid, 37° C., 18 hours)
CC[C@H](C)[C@H]1C(=O)NCC(=O)N[C@@H]([C@@H](C)O)C(=O)N2CCC[C@H]2C(=O)N[C@@H](Cc2ccccc2)C(=O)N(C)[C@@H](CC(C)C)C(=O)N[C@H](C(=O)N2CCCCC2)CC(=O)N[C@H](C(C)C)C(=O)N[C@@H](Cc2ccccc2)C(=O)N(C)[C@@H](CC(C)C)C(=O)N[C@@H](CC(C)C)C(=O)N1C [DP-231] ([dV]F[NMeL]L[NMeI]GTPF[NMeL]D-Piperidide; lactam N-11) | 56 µL/min/mg | 18 ×10⁻⁶ cm/s | – | – | –
CC[C@H](C)[C@H]1C(=O)N[C@@H]([C@@H](C)O)C(=O)N(C)CC(=O)N[C@H](C(=O)N2CCCCC2)CC(=O)N[C@H](C(C)C)C(=O)N[C@@H](CC(C)C)C(=O)N(C)[C@@H](CC(C)C)C(=O)N(C)[C@@H](Cc2ccccc2)C(=O)N[C@@H](C)C(=O)N(C)[C@@H](Cc2ccccc2)C(=O)N(C)[C@@H](CC(C)C)C(=O)N1C [DP-232] ([dV]L[NMeL][NMeF]A[NMeF][NMeL][NMeI]T[Sar]D-Piperidide; lactam N-11) | – | – | 77 µL/min/mg | 18 ×10⁻⁶ cm/s | –
CC[C@H](C)[C@H]1C(=O)N(C)CC(=O)N(C)[C@@H](C(C)C)C(=O)N[C@@H]([C@@H](C)O)C(=O)N[C@H](C(=O)N2CCCCC2)CC(=O)N[C@H](C(C)C)C(=O)N(C)[C@@H](C)C(=O)N(C)[C@@H](CC(C)C)C(=O)N[C@@H](CC(C)C)C(=O)N(C)[C@@H](Cc2ccccc2)C(=O)N[C@@H](Cc2ccccc2)C(=O)N1C [DP-233] ([dV][NMeA][NMeL]L[NMeF]F[NMeI][Sar][NMeV]TD-Piperidide; lactam N-11) | – | – | 39 µL/min/mg | 32 ×10⁻⁶ cm/s | –
CC[C@H](C)[C@H]1C(=O)N(C)[C@@H](CC(C)C)C(=O)N[C@@H]([C@@H](C)O)C(=O)N[C@H](C(=O)N2CCCCC2)CC(=O)N[C@H](C(C)C)C(=O)N(C)[C@@H](C)C(=O)N(C)[C@@H](CC(C)C)C(=O)N(C)[C@@H](Cc2ccccc2)C(=O)N[C@@H](C)C(=O)N(C)[C@@H](CC(C)C)C(=O)N(C)[C@@H](Cc2ccccc2)C(=O)N1C [DP-234] ([dV][NMeA][NMeL][NMeF]A[NMeL][NMeF][NMeI][NMeL]TD-Piperidide; lactam N-11) | – | – | 91 µL/min/mg | 2 ×10⁻⁶ cm/s | –
CC[C@H](C)[C@H]1C(=O)N(C)[C@@H](CC(C)C)C(=O)N[C@@H](C)C(=O)N(C)[C@@H](CC(C)C)C(=O)N(C)[C@@H](Cc2ccccc2)C(=O)N[C@@H]([C@@H](C)O)C(=O)N(C)[C@@H](Cc2ccccc2)C(=O)N(C)[C@@H](CC(C)C)C(=O)N(C)[C@@H](C)C(=O)N[C@H](C(=O)N2CCCCC2)CC(=O)N[C@H](C(C)C)C(=O)N1C [DP-235] ([dV][NMeI][NMeL]A[NMeL][NMeF]T[NMeF][NMeL][NMeA]D-Piperidide; lactam N-11) | – | – | 58 µL/min/mg | 9 ×10⁻⁶ cm/s | –
CC[C@H](C)[C@H]1C(=O)NCC(=O)N(C)[C@@H](CC(C)C)C(=O)N[C@@H]([C@@H](C)O)C(=O)N2CCC[C@H]2C(=O)N[C@@H](Cc2ccccc2)C(=O)N[C@H](C(=O)N2CCCCC2)CC(=O)N(C)[C@@H](C)C(=O)N[C@@H](Cc2ccccc2)C(=O)N(C)[C@@H](CC(C)C)C(=O)N[C@@H](CC(C)C)C(=O)N1C [DP-236] ([NMeA]F[NMeL]L[NMeI]G[NMeL]TPFD-Piperidide; lactam N-11) | – | – | 79 µL/min/mg | – | 7.0E−05
CC(C)C[C@@H]1NC(=O)[C@H](CC(C)C)N(C)C(=O)[C@H](C)NC(=O)[C@H](C(C)C)N(C)C(=O)[C@H](C)N(C)C(=O)CN(C)C(=O)[C@H]([C@@H](C)O)NC(=O)[C@H](Cc2ccccc2)NC(=O)[C@H](CC(C)C)N(C)C(=O)[C@H](C)N(C)C(=O)C[C@@H](C(=O)N2CCCCC2)NC1=O [DP-237] ([NMeA][NMeL]FT[Sar][NMeA][NMeV]A[NMeL]LD-Piperidide; lactam N-11) | – | – | 37 µL/min/mg | 12 ×10⁻⁶ cm/s | –
CC[C@H](C)[C@@H]1NC(=O)[C@H](Cc2ccccc2)N(C)C(=O)[C@H]([C@@H](C)O)NC(=O)[C@H](C(C)C)N(C)C(=O)[C@H](CC(C)C)NC(=O)[C@H](CC(C)C)N(C)C(=O)CCN(C)C(=O)C[C@@H](C(=O)N2CCCCC2)NC(=O)[C@H](C)NC(=O)[C@H](C)N(C)C(=O)[C@H](Cc2ccccc2)NC1=O [DP-238] ([NMeβAla][NMeL]L[NMeV]T[NMeF]IF[NMeA]AD-Piperidide; lactam N-11) | – | – | 129 µL/min/mg | 19 ×10⁻⁶ cm/s | –
CC[C@H](C)[C@H]1C(=O)N[C@@H](Cc2ccccc2)C(=O)N[C@@H]([C@@H](C)O)C(=O)N2CCC[C@H]2C(=O)N[C@@H](Cc2ccccc2)C(=O)N[C@H](C(=O)N2CCCCC2)CC(=O)N(C)CCC(=O)N(C)[C@@H](CC(C)C)C(=O)N(C)[C@@H](CC(C)C)C(=O)N[C@@H](CC(C)C)C(=O)NCC(=O)N1C [DP-239] ([NMeβAla][NMeL][NMeL]LG[NMeI]FTPFD-Piperidide; lactam N-11) | – | – | 109 µL/min/mg | 25 ×10⁻⁶ cm/s | –
CC[C@H](C)[C@H]1C(=O)N(C)[C@@H](CC(C)C)C(=O)N[C@H](C(=O)N2CCCCC2)CC(=O)N(C)CCC(=O)N(C)[C@@H](CC(C)C)C(=O)N[C@@H]([C@@H](C)O)C(=O)N(C)[C@@H](C)C(=O)N(C)[C@@H](Cc2ccccc2)C(=O)N[C@@H](C)C(=O)N(C)[C@@H](Cc2ccccc2)C(=O)N[C@@H](CC(C)C)C(=O)N1C [DP-240] ([NMeβAla][NMeL]T[NMeA][NMeF]A[NMeF]L[NMeI][NMeL]D-Piperidide; lactam N-11) | – | – | 125 µL/min/mg | 38 ×10⁻⁶ cm/s | –
CC[C@H](C)[C@H]1C(=O)N(C)[C@@H](Cc2ccccc2)C(=O)N[C@@H]([C@@H](C)O)C(=O)N(C)[C@@H](C)C(=O)N(C)[C@@H](C(C)C)C(=O)N(C)[C@@H](CC(C)C)C(=O)N[C@@H](C)C(=O)N[C@H](C(=O)N2CCCCC2)CC(=O)N(C)CCC(=O)N[C@@H](Cc2ccccc2)C(=O)N(C)[C@@H](CC(C)C)C(=O)N1C [DP-241] ([NMeβAla]F[NMeL][NMeI][NMeF]T[NMeA][NMeV][NMeL]AD-Piperidide; lactam N-11) | – | – | 30 µL/min/mg | 26 ×10⁻⁶ cm/s | –
CC[C@H](C)[C@@H]1NC(=O)[C@H](C)N(C)C(=O)[C@H]([C@@H](C)O)NC(=O)[C@H](C(C)C)N(C)C(=O)[C@H](CC(C)C)NC(=O)[C@H](CC(C)C)N(C)C(=O)[C@@H](C)N(C)C(=O)C[C@@H](C(=O)N2CCCCC2)NC(=O)[C@H](Cc2ccccc2)NC(=O)[C@H](C)NC(=O)[C@H](Cc2ccccc2)N(C)C1=O [DP-242] ([dNMeA][NMeL]L[NMeV]T[NMeA]I[NMeF]AFD-Piperidide; lactam N-11) | – | – | 43 µL/min/mg | 29 ×10⁻⁶ cm/s | –
CC(C)C[C@@H]1NC(=O)[C@H](CC(C)C)N(C)C(=O)[C@H](C)NC(=O)[C@H](C(C)C)N(C)C(=O)[C@H](C)N(C)C(=O)CN(C)C(=O)[C@H]([C@@H](C)O)NC(=O)[C@H](Cc2ccccc2)NC(=O)[C@H](CC(C)C)N(C)C(=O)[C@@H](C)N(C)C(=O)C[C@@H](C(=O)N2CCCCC2)NC1=O [DP-243] ([dNMeA][NMeL]FT[Sar][NMeA][NMeV]A[NMeL]LD-Piperidide; lactam N-11) | – | – | 32 µL/min/mg | 8.4 ×10⁻⁶ cm/s | –
CC[C@H](C)[C@H]1C(=O)N(C)[C@@H](Cc2ccccc2)C(=O)N(C)[C@@H](CC(C)C)C(=O)N[C@H](C(=O)N2CCCCC2)CC(=O)N(C)[C@H](C)C(=O)N(C)[C@@H](CC(C)C)C(=O)N[C@@H]([C@@H](C)O)C(=O)N(C)[C@@H](C)C(=O)N[C@@H](C)C(=O)N(C)[C@@H](Cc2ccccc2)C(=O)N[C@@H](CC(C)C)C(=O)N1C [DP-244] ([dNMeA][NMeL]T[NMeA]A[NMeF]L[NMeI][NMeF][NMeL]D-Piperidide; lactam N-11) | – | – | 16 µL/min/mg | 31 ×10⁻⁶ cm/s | –
CC[C@H](C)[C@@H]1NC(=O)[C@H](C)N(C)C(=O)[C@H]([C@@H](C)O)NC(=O)[C@H](C(C)C)N(C)C(=O)[C@H](CC(C)C)NC(=O)[C@H](CC(C)C)N(C)C(=O)CN(C)C(=O)C[C@@H](C(=O)N2CCCCC2)NC(=O)[C@H](C)NC(=O)[C@H](Cc2ccccc2)NC(=O)[C@H](Cc2ccccc2)N(C)C1=O [DP-245] ([Sar][NMeL]L[NMeV]T[NMeA]I[NMeF]FAD-Piperidide; lactam N-11) | – | – | 71 µL/min/mg | 31 ×10⁻⁶ cm/s | –
CC[C@H](C)[C@H]1C(=O)N(C)[C@@H](CC(C)C)C(=O)N[C@H](C(=O)N2CCCCC2)CC(=O)N(C)CC(=O)N[C@@H](CC(C)C)C(=O)N[C@@H]([C@@H](C)O)C(=O)N(C)CC(=O)N(C)[C@@H](Cc2ccccc2)C(=O)N[C@@H](C)C(=O)N(C)[C@@H](Cc2ccccc2)C(=O)N(C)[C@@H](CC(C)C)C(=O)N1C [DP-246] ([Sar]LT[Sar][NMeF]A[NMeF][NMeL][NMeI][NMeL]D-Piperidide; lactam N-11) | – | – | 42 µL/min/mg | 41 ×10⁻⁶ cm/s | –
CC[C@H](C)[C@H]1C(=O)N[C@@H](CC(C)C)C(=O)N(C)[C@@H](CC(C)C)C(=O)N[C@H](C(=O)N2CCCCC2)CC(=O)N(C)CC(=O)N(C)[C@@H](CC(C)C)C(=O)N[C@@H]([C@@H](C)O)C(=O)N(C)[C@@H](C)C(=O)N[C@@H](C)C(=O)N(C)[C@@H](Cc2ccccc2)C(=O)N(C)[C@@H](Cc2ccccc2)C(=O)N1C [DP-247] ([Sar][NMeL]T[NMeA]A[NMeF][NMeF][NMeI]L[NMeL]D-Piperidide; lactam N-11) | – | – | 48 µL/min/mg | 28 ×10⁻⁶ cm/s | –
CC[C@H](C)[C@H]1C(=O)N(C)[C@@H](Cc2ccccc2)C(=O)N[C@@H](CC(C)C)C(=O)N[C@H](C(=O)N2CCCCC2)CC(=O)N(C)CCCC(=O)N(C)[C@@H](CC(C)C)C(=O)N[C@@H]([C@@H](C)O)C(=O)N(C)[C@@H](Cc2ccccc2)C(=O)N(C)[C@@H](CC(C)C)C(=O)N(C)[C@@H](CC(C)C)C(=O)N[C@@H](C)C(=O)N1C [DP-248] ([NMeGABA][NMeL]T[NMeF][NMeL][NMeL]A[NMeI][NMeF]LD-Piperidide; lactam N-11) | – | – | 36 µL/min/mg | 2.6 ×10⁻⁶ cm/s | –
